Consider four compounds from PMC8722715 (Frontiers in Cell and Developmental Biology, 2021).

For one test, the target named is T1, hNaV1.7 channel (Homo sapiens, UniProt Q15858).
T1 construct: expressed in transfected cells
Description: Automated patch-clamp block of hNaV1.7 peak Na+ current in CHO cells. Type of test: cell-based. The conditions noted are these: for IC50: CHO cells stably expressing hNaV1.7, SyncroPatch 384 PE whole-cell, holding -100 mV, -10 mV test pulse 50 ms every 5 s, room temperature 18-22°C, 0.3% BSA, steady state or end of 15-min application, mean, S.E.M. and n cells; for hNaV1.7 IC50 versus WT: ratio of analogue mean IC50 to HwTx-IV WT mean IC50 on hNaV1.7. As for the experimental part: (§1) CHO cells stably expressing the hNaV1.7 channel subtype were cultured in Dulbecco’s Modified Eagle’s Medium F-12 (DMEM/F12) supplemented with 10% fetal bovine serum, 2 mM glutamine, 200 μg/ml hygromycine B, 10 U/ml penicillin and 10 μg/ml streptomycin (Gibco, Grand Island, NY). HEK-293 cells stably expressing the hNaV1.6 channel subtype were cultured in Dulbecco’s Modified Eagle’s Medium (DMEM) supplemented with 10% fetal calf serum, 1 mM pyruvic acid, 4.5 g/L glucose, 2 mM glutamine, 800 μg/ml G418, 10 U/ml penicillin and 10 μg/ml streptomycin (Gibco, Grand Island, NY). All cell lines were incubated at 37°C in a 5% CO2 atmosphere. For electrophysiological recordings, cells were detached with trypsin, and floating single cells were diluted (∼300,000 cells/ml) in an extracellular solution containing (in mM): 140 NaCl, 4 KCl, 2 CaCl2, 1 MgCl2, 5 glucose and 10 HEPES (pH 7.4, osmolarity 298 mOsm), that was used throughout the experiments.
HwTx-IV analogues were investigated on CHO cells expressing hNav1.7 channel and HEK-293 cells expressing hNaV1.6 channel using the automated patch-clamp system from Nanion (SyncroPatch 384 PE; München, Germany). Chips with single-hole and high-resistance (∼6–7 MΩ) were used for both cell lines. Voltage pulses and whole-cell recordings were achieved using the PatchControl384 v1.5.2 software (Nanion) and the Biomek v1.0 interface (Beckman Coulter). Prior to recordings, dissociated cells were shaken at 200 RPM in a cell hotel reservoir at 10°C. After cell catching, sealing, whole-cell formation, liquid application, recording, and data acquisition were all performed sequentially and automatically. The intracellular solution contained (in mM): 110 CsF, 10 CsCl, 10 NaCl, 1 MgCl2, 1 CaCl2, 10 EGTA and 10 HEPES (pH 7.2, osmolarity 280 mOsm), and the extracellular solution was as described above. Whole-cell experiments were done at −100 mV holding potential and at room temperature (18–22°C), while currents triggered at either −10 or 0 mV test potential were sampled at 20 kHz. Stimulation frequency was set at 0.2 Hz. Each HwTx-IV analogue was prepared at various concentrations in the extracellular solution, itself supplemented with 0.3% of bovine serum albumin (BSA), also added in the control solution. […] Compound solutions were diluted 3 times in the patch-clamp recording well by adding 30–60 μl external solution, to reach the final reported concentration and the test volume of 90 μl. For establishing dose-response curves, the compounds were tested at a test potential of either −10 or 0 mV for 50 ms with a pulse every 5 s. Percentages of current inhibition were measured at steady-state of blockage or at the end of a 15-min application time.
(In patch-clamp work, channel activity is measured electrically.)

The target in a further test is T2, hNaV1.6 channel (Homo sapiens, UniProt Q9UQD0).
T2 construct: expressed in transfected cells
T2 sequence (Q9UQD0 whole entry): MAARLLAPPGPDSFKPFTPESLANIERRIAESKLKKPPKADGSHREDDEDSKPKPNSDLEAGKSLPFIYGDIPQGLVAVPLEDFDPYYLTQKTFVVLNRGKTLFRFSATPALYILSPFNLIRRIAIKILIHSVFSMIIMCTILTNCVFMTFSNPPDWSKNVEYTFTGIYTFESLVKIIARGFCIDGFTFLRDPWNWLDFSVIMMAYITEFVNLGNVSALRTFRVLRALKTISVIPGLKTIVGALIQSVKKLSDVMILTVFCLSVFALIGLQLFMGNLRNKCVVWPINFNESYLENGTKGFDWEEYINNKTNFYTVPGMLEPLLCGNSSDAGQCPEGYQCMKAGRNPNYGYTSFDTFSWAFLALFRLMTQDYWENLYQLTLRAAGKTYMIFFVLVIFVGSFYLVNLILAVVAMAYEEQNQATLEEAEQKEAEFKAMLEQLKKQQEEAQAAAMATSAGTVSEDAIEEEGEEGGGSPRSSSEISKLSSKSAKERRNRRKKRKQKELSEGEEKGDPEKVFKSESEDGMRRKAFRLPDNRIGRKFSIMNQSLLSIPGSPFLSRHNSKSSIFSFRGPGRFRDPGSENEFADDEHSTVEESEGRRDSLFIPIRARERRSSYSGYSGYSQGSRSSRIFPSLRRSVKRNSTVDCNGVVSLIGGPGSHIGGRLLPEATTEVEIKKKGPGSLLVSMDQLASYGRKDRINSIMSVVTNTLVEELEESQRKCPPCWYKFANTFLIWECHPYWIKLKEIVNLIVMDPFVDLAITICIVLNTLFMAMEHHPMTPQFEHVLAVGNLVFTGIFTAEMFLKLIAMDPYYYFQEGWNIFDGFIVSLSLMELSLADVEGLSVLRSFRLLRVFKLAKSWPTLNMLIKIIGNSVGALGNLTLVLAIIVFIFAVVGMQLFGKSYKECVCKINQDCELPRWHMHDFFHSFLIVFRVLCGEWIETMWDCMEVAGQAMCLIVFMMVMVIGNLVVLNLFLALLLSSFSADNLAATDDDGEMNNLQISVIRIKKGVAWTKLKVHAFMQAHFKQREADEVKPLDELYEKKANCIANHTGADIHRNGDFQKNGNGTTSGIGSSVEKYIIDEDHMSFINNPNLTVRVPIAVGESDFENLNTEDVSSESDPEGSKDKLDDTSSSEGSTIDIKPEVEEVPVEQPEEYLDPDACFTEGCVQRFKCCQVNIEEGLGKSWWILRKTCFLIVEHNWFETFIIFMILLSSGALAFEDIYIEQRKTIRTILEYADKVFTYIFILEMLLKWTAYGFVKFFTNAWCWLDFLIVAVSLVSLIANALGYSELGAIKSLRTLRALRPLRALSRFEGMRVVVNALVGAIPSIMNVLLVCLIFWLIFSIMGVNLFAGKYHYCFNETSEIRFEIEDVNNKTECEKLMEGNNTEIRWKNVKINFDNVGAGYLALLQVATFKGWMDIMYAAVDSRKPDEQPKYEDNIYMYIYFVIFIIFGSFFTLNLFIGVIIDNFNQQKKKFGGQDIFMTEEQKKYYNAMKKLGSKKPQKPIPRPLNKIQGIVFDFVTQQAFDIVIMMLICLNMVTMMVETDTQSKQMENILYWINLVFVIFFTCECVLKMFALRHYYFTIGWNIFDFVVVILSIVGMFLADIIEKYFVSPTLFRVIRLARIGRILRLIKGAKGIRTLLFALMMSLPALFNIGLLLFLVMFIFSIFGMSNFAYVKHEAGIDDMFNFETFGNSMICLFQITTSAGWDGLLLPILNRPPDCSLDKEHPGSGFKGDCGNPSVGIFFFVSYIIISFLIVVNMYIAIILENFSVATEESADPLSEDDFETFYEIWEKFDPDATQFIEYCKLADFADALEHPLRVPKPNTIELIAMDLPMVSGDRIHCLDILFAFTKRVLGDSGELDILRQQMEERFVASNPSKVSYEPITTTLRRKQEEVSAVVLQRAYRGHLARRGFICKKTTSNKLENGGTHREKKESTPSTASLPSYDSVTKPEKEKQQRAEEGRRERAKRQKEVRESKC
As to the kind of experiment: Automated patch-clamp block of hNaV1.6 peak Na+ current in HEK-293 cells. Type of test: cell-based. As to conditions: for IC50: HEK-293 cells stably expressing hNaV1.6, SyncroPatch 384 PE whole-cell, holding -100 mV, 0 mV test pulse 50 ms every 5 s, room temperature 18-22°C, 0.3% BSA, steady state or end of 15-min application, mean, S.E.M. and n cells; for hNaV1.6 IC50 versus WT: ratio of analogue mean IC50 to HwTx-IV WT mean IC50 on hNaV1.6. As for the experimental part:
as §1
HwTx-IV analogues were investigated on CHO cells expressing hNav1.7 channel and HEK-293 cells expressing hNaV1.6 channel using the automated patch-clamp system from Nanion (SyncroPatch 384 PE; München, Germany). Chips with single-hole and high-resistance (∼6–7 MΩ) were used for both cell lines. Voltage pulses and whole-cell recordings were achieved using the PatchControl384 v1.5.2 software (Nanion) and the Biomek v1.0 interface (Beckman Coulter). Prior to recordings, dissociated cells were shaken at 200 RPM in a cell hotel reservoir at 10°C. After cell catching, sealing, whole-cell formation, liquid application, recording, and data acquisition were all performed sequentially and automatically. The intracellular solution contained (in mM): 110 CsF, 10 CsCl, 10 NaCl, 1 MgCl2, 1 CaCl2, 10 EGTA and 10 HEPES (pH 7.2, osmolarity 280 mOsm), and the extracellular solution was as described above. Whole-cell experiments were done at −100 mV holding potential and at room temperature (18–22°C), while currents triggered at either −10 or 0 mV test potential were sampled at 20 kHz. Stimulation frequency was set at 0.2 Hz. Each HwTx-IV analogue was prepared at various concentrations in the extracellular solution, itself supplemented with 0.3% of bovine serum albumin (BSA), also added in the control solution. The peptides were distributed in 384-well microplates according to the number of compounds to be tested (generally four), the concentration range defined from the IC50 of wild-type HwTx-IV, and the number of cells desired for each experimental condition. Compound solutions were diluted 3 times in the patch-clamp recording well by adding 30–60 μl external solution, to reach the final reported concentration and the test volume of 90 μl. For establishing dose-response curves, the compounds were tested at a test potential of either −10 or 0 mV for 50 ms with a pulse every 5 s. Percentages of current inhibition were measured at steady-state of blockage or at the end of a 15-min application time.

T1 sequence (Q15858 whole entry): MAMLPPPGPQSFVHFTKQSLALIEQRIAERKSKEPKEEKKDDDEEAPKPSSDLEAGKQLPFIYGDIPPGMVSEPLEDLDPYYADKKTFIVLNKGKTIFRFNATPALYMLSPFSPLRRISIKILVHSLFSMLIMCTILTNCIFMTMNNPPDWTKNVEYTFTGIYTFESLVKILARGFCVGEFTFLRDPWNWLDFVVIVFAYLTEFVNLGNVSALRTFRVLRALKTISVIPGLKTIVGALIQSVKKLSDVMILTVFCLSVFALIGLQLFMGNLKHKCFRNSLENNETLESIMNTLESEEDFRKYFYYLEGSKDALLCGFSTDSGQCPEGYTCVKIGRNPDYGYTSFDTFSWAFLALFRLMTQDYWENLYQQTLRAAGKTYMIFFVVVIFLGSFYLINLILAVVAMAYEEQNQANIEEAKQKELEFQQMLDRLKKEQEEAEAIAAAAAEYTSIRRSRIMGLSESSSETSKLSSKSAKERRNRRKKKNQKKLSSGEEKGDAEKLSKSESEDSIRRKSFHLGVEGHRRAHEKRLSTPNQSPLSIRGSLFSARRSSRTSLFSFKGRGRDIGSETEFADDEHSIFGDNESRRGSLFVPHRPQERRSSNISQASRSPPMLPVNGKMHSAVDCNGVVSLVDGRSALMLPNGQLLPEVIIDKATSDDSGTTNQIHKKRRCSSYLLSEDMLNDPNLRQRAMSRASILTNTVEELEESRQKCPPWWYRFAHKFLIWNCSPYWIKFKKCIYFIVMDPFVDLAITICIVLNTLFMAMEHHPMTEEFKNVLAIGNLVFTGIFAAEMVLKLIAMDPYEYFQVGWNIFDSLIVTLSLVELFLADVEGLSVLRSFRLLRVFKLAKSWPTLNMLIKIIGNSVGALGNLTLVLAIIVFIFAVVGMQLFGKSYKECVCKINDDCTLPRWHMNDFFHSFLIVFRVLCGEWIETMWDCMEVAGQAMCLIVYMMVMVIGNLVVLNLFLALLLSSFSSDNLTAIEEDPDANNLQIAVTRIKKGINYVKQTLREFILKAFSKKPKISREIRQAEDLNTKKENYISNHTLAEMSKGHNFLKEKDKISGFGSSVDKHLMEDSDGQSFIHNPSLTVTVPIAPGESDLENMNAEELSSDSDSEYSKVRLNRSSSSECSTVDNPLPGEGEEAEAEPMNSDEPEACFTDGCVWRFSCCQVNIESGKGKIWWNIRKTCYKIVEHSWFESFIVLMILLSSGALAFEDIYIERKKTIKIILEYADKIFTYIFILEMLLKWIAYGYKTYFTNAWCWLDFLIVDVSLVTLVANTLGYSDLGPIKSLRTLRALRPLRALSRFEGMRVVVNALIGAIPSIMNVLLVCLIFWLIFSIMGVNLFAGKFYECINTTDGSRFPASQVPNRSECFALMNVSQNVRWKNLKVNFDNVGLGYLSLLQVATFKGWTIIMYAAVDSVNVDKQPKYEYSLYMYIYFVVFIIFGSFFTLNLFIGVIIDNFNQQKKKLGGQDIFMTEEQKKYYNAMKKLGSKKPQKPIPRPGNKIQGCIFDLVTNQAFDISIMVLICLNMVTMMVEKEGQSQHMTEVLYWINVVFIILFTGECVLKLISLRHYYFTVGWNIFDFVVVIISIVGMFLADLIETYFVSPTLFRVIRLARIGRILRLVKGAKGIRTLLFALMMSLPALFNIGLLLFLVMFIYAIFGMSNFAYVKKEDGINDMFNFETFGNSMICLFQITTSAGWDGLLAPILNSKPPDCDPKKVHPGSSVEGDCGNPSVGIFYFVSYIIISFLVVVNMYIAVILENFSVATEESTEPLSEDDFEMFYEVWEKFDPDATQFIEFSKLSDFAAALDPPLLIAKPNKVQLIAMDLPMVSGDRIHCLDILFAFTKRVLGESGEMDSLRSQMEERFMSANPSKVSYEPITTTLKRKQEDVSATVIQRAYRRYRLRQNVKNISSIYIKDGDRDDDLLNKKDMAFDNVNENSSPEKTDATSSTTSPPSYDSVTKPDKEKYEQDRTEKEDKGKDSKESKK

Broadly, the IC50 is the concentration needed to halve the response being measured. Read a low IC50 as higher potency. Take `CC[C@H](C)[C@H](NC(=O)[C@H](CCC(N)=O)NC(=O)[C@H](Cc1ccc(O)cc1)NC(=O)[C@H](CCCCN)NC(=O)[C@@H]1CSSC[C@@H]2NC(=O)[C@H](CCC(N)=O)NC(=O)[C@H](CC(=O)O)NC(=O)[C@H](CC(N)=O)NC(=O)[C@H](CO)NC(=O)[C@@H]3CCCN3C(=O)[C@H](CC(N)=O)NC(=O)[C@@H]3CSSC[C@H](NC(=O)[C@H](C(C)C)NC(=O)[C@H](CC(C)C)NC(=O)[C@H](CCCCN)NC(=O)[C@H](CO)NC(=O)[C@H](CO)NC(=O)[C@H](CCCCN)NC(=O)[C@H](CSSC[C@H](NC(=O)[C@@H](N)CCC(=O)O)C(=O)N[C@@H](CC(C)C)C(=O)N[C@@H](CCC(=O)O)C(=O)N[C@@H]([C@@H](C)CC)C(=O)N[C@@H](Cc4ccccc4)C(=O)N[C@@H](CCCCN)C(=O)N[C@@H](C)C(=O)N3)NC2=O)C(=O)N[C@@H](CO)C(=O)N[C@@H](CCCNC(=N)N)C(=O)N[C@@H](CCCCN)C(=O)N[C@@H]([C@@H](C)O)C(=O)N[C@@H](CCCNC(=N)N)C(=O)N[C@@H](Cc2c[nH]c3ccccc23)C(=O)N1)C(=O)O` [HwTx-IV CterCOOH]: on hNaV1.7 channel, half-maximal inhibition (IC50) required 176 nM and the “hNaV1.7 IC50 versus WT” value was 17.81. Further, on hNaV1.6 channel, the half-inhibitory concentration (IC50) stood at 1230 nM and the “hNaV1.6 IC50 versus WT” value is 5.43.
For `CC[C@H](C)[C@H](NC(=O)[C@H](CCC(N)=O)NC(=O)[C@H](Cc1ccc(O)cc1)NC(=O)[C@H](CCCCN)NC(=O)[C@@H]1CSSC[C@@H]2NC(=O)[C@H](CCC(N)=O)NC(=O)[C@H](CC(=O)O)NC(=O)[C@H](CC(N)=O)NC(=O)[C@H](CO)NC(=O)[C@@H]3CCCN3C(=O)[C@H](CC(N)=O)NC(=O)[C@@H]3CSSC[C@H](NC(=O)[C@H](C(C)C)NC(=O)[C@H](CC(C)C)NC(=O)[C@H](CCCCN)NC(=O)[C@H](CO)NC(=O)[C@H](CO)NC(=O)[C@H](C)NC(=O)[C@H](CSSC[C@H](NC(=O)CN)C(=O)N[C@@H](CC(C)C)C(=O)NCC(=O)N[C@@H]([C@@H](C)CC)C(=O)N[C@@H](Cc4ccccc4)C(=O)N[C@@H](CCCCN)C(=O)N[C@@H](C)C(=O)N3)NC2=O)C(=O)N[C@@H](CO)C(=O)N[C@@H](CCCNC(=N)N)C(=O)N[C@@H](CCCCN)C(=O)N[C@@H]([C@@H](C)O)C(=O)N[C@@H](CCCNC(=N)N)C(=O)N[C@@H](Cc2c[nH]c3ccccc23)C(=O)N1)C(N)=O` [HwTx-IV E^1G/E^4G/K^18A], at hNaV1.7 channel, inhibition was half-maximal at 0.8 nM (IC50) and the “hNaV1.7 IC50 versus WT” value is 0.08. For the same compound, on hNaV1.6 channel, the IC50 amounted to 4.9 nM and the “hNaV1.6 IC50 versus WT” value came to 0.02.
`CC[C@H](C)[C@H](NC(=O)[C@H](CCC(N)=O)NC(=O)[C@H](Cc1ccc(O)cc1)NC(=O)[C@H](CCCCN)NC(=O)[C@@H]1CSSC[C@@H]2NC(=O)[C@H](CCC(N)=O)NC(=O)[C@H](CC(=O)O)NC(=O)[C@H](CC(N)=O)NC(=O)[C@H](CO)NC(=O)[C@@H]3CCCN3C(=O)[C@H](CC(N)=O)NC(=O)[C@@H]3CSSC[C@H](NC(=O)[C@H](C(C)C)NC(=O)[C@H](CC(C)C)NC(=O)[C@H](CCCCN)NC(=O)[C@H](CO)NC(=O)[C@H](CO)NC(=O)[C@H](CCCCN)NC(=O)[C@H](CSSC[C@H](NC(=O)CN)C(=O)N[C@@H](CC(C)C)C(=O)NCC(=O)N[C@@H]([C@@H](C)CC)C(=O)N[C@@H](Cc4ccccc4)C(=O)N[C@@H](CCCCN)C(=O)N[C@@H](C)C(=O)N3)NC2=O)C(=O)N[C@@H](CO)C(=O)N[C@@H](CCCNC(=N)N)C(=O)N[C@@H](CCCCN)C(=O)N[C@@H]([C@@H](C)O)C(=O)N[C@@H](CCCNC(=N)N)C(=O)N[C@@H](Cc2c[nH]c3ccccc23)C(=O)N1)C(N)=O` [HwTx-IV E^1G/E^4G]: at hNaV1.7 channel, it took 2 nM to reach half-maximal inhibition (IC50) and the “hNaV1.7 IC50 versus WT” value is 0.20. For the same compound, at hNaV1.7 channel (inverse ratio of the mean IC50 values on hNaV1.7 (CHO) and hNaV1.6 (HEK-293) of Table 1), the hNaV1.7/hNaV1.6 selectivity ratio result is listed as “less than 2”. For the same compound, at hNaV1.6 channel, the half-maximal inhibitory concentration (IC50) was found to be 3.7 nM and the “hNaV1.6 IC50 versus WT” value turned out to be 0.02.
Regarding `CC[C@H](C)[C@H](NC(=O)[C@H](CCC(N)=O)NC(=O)[C@H](Cc1ccc(O)cc1)NC(=O)[C@H](CCCCN)NC(=O)[C@@H]1CSSC[C@@H]2NC(=O)[C@H](CCC(N)=O)NC(=O)[C@H](CC(=O)O)NC(=O)[C@H](CC(N)=O)NC(=O)[C@H](CO)NC(=O)[C@@H]3CCCN3C(=O)[C@H](CC(N)=O)NC(=O)[C@@H]3CSSC[C@H](NC(=O)[C@H](C(C)C)NC(=O)[C@H](CC(C)C)NC(=O)[C@H](CCCCN)NC(=O)[C@H](CO)NC(=O)[C@H](CO)NC(=O)[C@H](CCCCN)NC(=O)[C@H](CSSC[C@H](NC(=O)[C@@H](N)CCC(=O)O)C(=O)N[C@@H](CC(C)C)C(=O)N[C@@H](CCC(=O)O)C(=O)N[C@@H]([C@@H](C)CC)C(=O)N[C@@H](Cc4ccccc4)C(=O)N[C@@H](CCCCN)C(=O)N[C@@H](C)C(=O)N3)NC2=O)C(=O)N[C@@H](CO)C(=O)N[C@@H](CCCNC(=N)N)C(=O)N[C@@H](CCCCN)C(=O)N[C@@H](Cc2c[nH]c3ccccc23)C(=O)N[C@@H](CCCNC(=N)N)C(=O)N[C@@H](Cc2c[nH]c3ccccc23)C(=O)N1)C(N)=O` [HwTx-IV T^28W], at hNaV1.7 channel, the IC50 turned out to be 114 nM and the “hNaV1.7 IC50 versus WT” value turned out to be 11.53.
